# Measurements as given in ChEMBL document CHEMBL1201862, “PubChem BioAssay data set” (2004).
#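 Test compounds were applied to cells in 96-well plates for 48 hours at 5 doses. GI50: concentration for 50% inhibition of growth.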 Active and inactive are the calls of the source. No stated cut-off is given here; in the data, active = GI50 up to about 1.1 µM and inactive = higher.
# How the values were obtained:
# Test in all cases: NCI tumour cell line growth inhibition, 48 h
# SK-MEL-5 = tested on: SK-MEL-5
# SF-268 = tested on: SF-268
# ACHN = tested on: ACHN
# DU-145 = tested on: DU-145
# NCI-H226 = tested on: NCI-H226
# A549 = tested on: A549
# OVCAR-3 = tested on: OVCAR-3
# LOX IMVI = tested on: LOX IMVI
# NCI-H522 = tested on: NCI-H522
# PC-3 = tested on: PC-3
# CAKI-1 = tested on: CAKI-1
# SF-539 = tested on: SF-539
# SK-OV-3 = tested on: SK-OV-3
# NCI-H23 = tested on: NCI-H23
# Hs-578T = tested on: Hs-578T
# 786-0 = tested on: 786-0
# OVCAR-8 = tested on: OVCAR-8
# U-251 = tested on: U-251
# EKVX = tested on: EKVX
# OVCAR-5 = tested on: OVCAR-5
# UO-31 = tested on: UO-31
# MDA-N = tested on: MDA-N
# RPMI-8226 = tested on: RPMI-8226
# HL-60 = tested on: HL-60
# COLO 205 = tested on: COLO 205
# NCI-H460 = tested on: NCI-H460
# KM12 = tested on: KM12
# SK-MEL-2 = tested on: SK-MEL-2
# RXF 393 = tested on: RXF 393
# SNB-75 = tested on: SNB-75
# SN12C = tested on: SN12C
# UACC-257 = tested on: UACC-257
# SNB-19 = tested on: SNB-19
# UACC-62 = tested on: UACC-62
# TK-10 = tested on: TK-10
# BT-549 = tested on: BT-549
# HT-29 = tested on: HT-29
# MDA-MB-231 = tested on: MDA-MB-231
# M14 = tested on: M14
# MOLT-4 = tested on: MOLT-4
# SW-620 = tested on: SW-620
# HCT-15 = tested on: HCT-15
# SR = tested on: SR
# NCI/ADR-RES = tested on: NCI/ADR-RES
# A498 = tested on: A498
# IGROV-1 = tested on: IGROV-1
# MCF7 = tested on: MCF7
# MDA-MB-435 = tested on: MDA-MB-435
# CCRF-CEM = tested on: CCRF-CEM
# HCT-116 = tested on: HCT-116
# HOP-92 = tested on: HOP-92
# SF-295 = tested on: SF-295
# T47D = tested on: T47D
# OVCAR-4 = tested on: OVCAR-4
# HCC 2998 = tested on: HCC 2998
# Malme-3M = tested on: Malme-3M
# SK-MEL-28 = tested on: SK-MEL-28
# K562 = tested on: K562
# HOP-62 = tested on: HOP-62
compound,measurement,setting,value
COc1cc2c3c(c1O)-c1c(ccc(OC)c1OC)CC3N(C)CC2 (stereo unspecified),GI50,SK-MEL-5,> 100 µM (inactive)
same,GI50,SF-268,> 100 µM (inactive)
same,GI50,ACHN,> 100 µM (inactive)
same,GI50,DU-145,> 100 µM (inactive)
same,GI50,NCI-H226,> 100 µM (inactive)
same,GI50,A549,> 100 µM (inactive)
same,GI50,OVCAR-3,> 100 µM (inactive)
same,GI50,LOX IMVI,> 100 µM (inactive)
same,GI50,NCI-H522,> 100 µM (inactive)
same,GI50,PC-3,> 100 µM (inactive)
same,GI50,CAKI-1,> 100 µM (inactive)
same,GI50,SF-539,> 100 µM (inactive)
same,GI50,SK-OV-3,> 100 µM (inactive)
same,GI50,NCI-H23,> 100 µM (inactive)
same,GI50,Hs-578T,> 100 µM (inactive)
same,GI50,786-0,> 100 µM (inactive)
same,GI50,OVCAR-8,> 100 µM (inactive)
same,GI50,U-251,> 100 µM (inactive)
same,GI50,EKVX,> 100 µM (inactive)
same,GI50,OVCAR-5,> 100 µM (inactive)
same,GI50,UO-31,> 100 µM (inactive)
same,GI50,MDA-N,> 100 µM (inactive)
same,GI50,RPMI-8226,> 100 µM (inactive)
same,GI50,HL-60,40.9 µM (inactive)
same,GI50,COLO 205,> 100 µM (inactive)
same,GI50,NCI-H460,> 100 µM (inactive)
same,GI50,KM12,> 100 µM (inactive)
same,GI50,SK-MEL-2,> 100 µM (inactive)
same,GI50,RXF 393,> 100 µM (inactive)
same,GI50,SNB-75,> 100 µM (inactive)
same,GI50,SN12C,> 100 µM (inactive)
same,GI50,UACC-257,> 100 µM (inactive)
same,GI50,SNB-19,> 100 µM (inactive)
same,GI50,UACC-62,> 100 µM (inactive)
same,GI50,TK-10,> 100 µM (inactive)
same,GI50,BT-549,> 100 µM (inactive)
same,GI50,HT-29,77.4 µM (inactive)
same,GI50,MDA-MB-231,> 100 µM (inactive)
same,GI50,M14,> 100 µM (inactive)
same,GI50,MOLT-4,> 100 µM (inactive)
same,GI50,SW-620,> 100 µM (inactive)
same,GI50,HCT-15,> 100 µM
same,GI50,SR,> 100 µM (inactive)
same,GI50,NCI/ADR-RES,> 100 µM (inactive)
same,GI50,A498,> 100 µM (inactive)
same,GI50,IGROV-1,> 100 µM (inactive)
same,GI50,MCF7,> 100 µM (inactive)
same,GI50,MDA-MB-435,> 100 µM (inactive)
same,GI50,CCRF-CEM,91.4 µM (inactive)
same,GI50,HCT-116,> 100 µM (inactive)
same,GI50,HOP-92,> 100 µM (inactive)
same,GI50,SF-295,> 100 µM (inactive)
same,GI50,T47D,> 100 µM (inactive)
same,GI50,OVCAR-4,> 100 µM (inactive)
COc1ccc2c(c1OC)C(Br)CCC(Br)(Br)C2=O (stereo unspecified),GI50,SK-MEL-5,2.47 µM (inactive)
same,GI50,SF-268,14 µM (inactive)
same,GI50,ACHN,1.94 µM (inactive)
same,GI50,DU-145,12.4 µM (inactive)
same,GI50,NCI-H226,14 µM (inactive)
same,GI50,A549,13.6 µM (inactive)
same,GI50,OVCAR-3,15.8 µM (inactive)
same,GI50,LOX IMVI,2.93 µM (inactive)
same,GI50,NCI-H522,1.58 µM (inactive)
same,GI50,PC-3,11.9 µM (inactive)
same,GI50,CAKI-1,1.78 µM (inactive)
same,GI50,SF-539,3.17 µM (inactive)
same,GI50,HCC 2998,11.6 µM (inactive)
same,GI50,SK-OV-3,16.4 µM (inactive)
same,GI50,NCI-H23,7.21 µM (inactive)
same,GI50,Hs-578T,18.5 µM (inactive)
same,GI50,786-0,4.23 µM (inactive)
same,GI50,OVCAR-8,7.45 µM (inactive)
same,GI50,U-251,16.7 µM (inactive)
same,GI50,EKVX,14.1 µM (inactive)
same,GI50,OVCAR-5,17.5 µM (inactive)
same,GI50,UO-31,4.81 µM (inactive)
same,GI50,MDA-N,3.99 µM (inactive)
same,GI50,RPMI-8226,4.81 µM (inactive)
same,GI50,Malme-3M,10.7 µM (inactive)
same,GI50,HL-60,5.27 µM (inactive)
same,GI50,COLO 205,3.02 µM (inactive)
same,GI50,NCI-H460,16 µM (inactive)
same,GI50,KM12,16.3 µM (inactive)
same,GI50,SK-MEL-2,14.4 µM (inactive)
same,GI50,RXF 393,3.91 µM (inactive)
same,GI50,SN12C,4.83 µM (inactive)
same,GI50,UACC-257,14.6 µM (inactive)
same,GI50,SNB-19,15.5 µM (inactive)
same,GI50,SK-MEL-28,13.1 µM (inactive)
same,GI50,UACC-62,14.6 µM (inactive)
same,GI50,TK-10,6.79 µM (inactive)
same,GI50,BT-549,7.87 µM (inactive)
same,GI50,HT-29,4.43 µM (inactive)
same,GI50,MDA-MB-231,16.3 µM (inactive)
same,GI50,M14,5.25 µM (inactive)
same,GI50,MOLT-4,1.75 µM (inactive)
same,GI50,SW-620,2.25 µM (inactive)
same,GI50,HCT-15,5.57 µM
same,GI50,SR,1.27 µM (inactive)
same,GI50,NCI/ADR-RES,14.1 µM (inactive)
same,GI50,A498,16 µM (inactive)
same,GI50,IGROV-1,5.83 µM (inactive)
same,GI50,MCF7,9.02 µM (inactive)
same,GI50,MDA-MB-435,6.41 µM (inactive)
same,GI50,K562,2.79 µM (inactive)
same,GI50,HCT-116,4.9 µM (inactive)
same,GI50,HOP-92,3.52 µM (inactive)
same,GI50,SF-295,17.6 µM (inactive)
same,GI50,T47D,13.8 µM (inactive)
same,GI50,HOP-62,18.9 µM (inactive)
same,GI50,OVCAR-4,6 µM (inactive)
CC(=O)CCN1CC2CN=NC2(C#N)C1 (stereo unspecified),GI50,SK-MEL-5,> 100 µM (inactive)
same,GI50,SF-268,> 100 µM (inactive)
same,GI50,ACHN,24.8 µM (inactive)
same,GI50,DU-145,> 100 µM (inactive)
same,GI50,NCI-H226,20.7 µM (inactive)
same,GI50,A549,> 100 µM (inactive)
same,GI50,OVCAR-3,> 100 µM (inactive)
same,GI50,LOX IMVI,49 µM (inactive)
same,GI50,NCI-H522,1.79 µM (inactive)
same,GI50,PC-3,> 100 µM (inactive)
same,GI50,CAKI-1,0.379 µM (active)
same,GI50,HCC 2998,> 100 µM (inactive)
same,GI50,NCI-H23,> 100 µM (inactive)
same,GI50,Hs-578T,1.65 µM (inactive)
same,GI50,786-0,36.6 µM (inactive)
same,GI50,OVCAR-8,> 100 µM (inactive)
same,GI50,U-251,> 100 µM (inactive)
same,GI50,EKVX,> 100 µM (inactive)
same,GI50,OVCAR-5,> 100 µM (inactive)
same,GI50,UO-31,> 100 µM (inactive)
same,GI50,MDA-N,75.7 µM (inactive)
same,GI50,Malme-3M,69.7 µM (inactive)
same,GI50,HL-60,14.3 µM (inactive)
same,GI50,COLO 205,36.2 µM (inactive)
same,GI50,NCI-H460,> 100 µM (inactive)
same,GI50,KM12,> 100 µM (inactive)
same,GI50,SK-MEL-2,> 100 µM (inactive)
same,GI50,RXF 393,94.4 µM (inactive)
same,GI50,SNB-75,> 100 µM (inactive)
same,GI50,SN12C,> 100 µM (inactive)
same,GI50,UACC-257,> 100 µM (inactive)
same,GI50,SNB-19,> 100 µM (inactive)
same,GI50,SK-MEL-28,> 100 µM (inactive)
same,GI50,UACC-62,> 100 µM (inactive)
same,GI50,TK-10,> 100 µM (inactive)
same,GI50,BT-549,> 100 µM (inactive)
same,GI50,HT-29,> 100 µM (inactive)
same,GI50,MDA-MB-231,> 100 µM (inactive)
same,GI50,MOLT-4,14.7 µM (inactive)
same,GI50,SW-620,17 µM (inactive)
same,GI50,HCT-15,69 µM
same,GI50,SR,> 100 µM (inactive)
same,GI50,NCI/ADR-RES,> 100 µM (inactive)
same,GI50,A498,> 100 µM (inactive)
same,GI50,IGROV-1,> 100 µM (inactive)
same,GI50,MCF7,35.2 µM (inactive)
same,GI50,MDA-MB-435,> 100 µM (inactive)
same,GI50,CCRF-CEM,15.9 µM (inactive)
same,GI50,K562,6.7 µM (inactive)
same,GI50,HCT-116,34 µM (inactive)
same,GI50,HOP-92,22.3 µM (inactive)
same,GI50,SF-295,> 100 µM (inactive)
same,GI50,T47D,35.6 µM (inactive)
same,GI50,HOP-62,> 100 µM (inactive)
same,GI50,OVCAR-4,> 100 µM (inactive)
